Type in all cases: cell-based, human
In assay [1] the test system is HuH-7 cells. In words: Random cell migration assay. The protocol:
HuH-7 cells were labeled with fluorescent protein fusion constructs or Hoechst 33342. After being treated with or without the peptides for 12 hr, the cells were tracked with a 20x/0.8 Plan-Apochromat objective for 6 h. The centroids of labeled cells were tracked using the TrackMate plugin (https://imagej.net/plugins/trackmate/) in ImageJ[44]. A custom MATLAB script generated by a person was applied to reconstruct the cell migration trajectory. […]
The directionality of the cell movement was described by the persistence index and the persistent time, the persistence index was defined by the ratio of the vectorial distance (the distance between the origin and the endpoint of the movement) and the length of the total path and the persistent time is defined as the time it takes for the cell to change the initial direction by 90°[45].

In assay [2] the test system is HuH-7 cells. In words: Cell spreading evaluation (phalloidin staining). The protocol:
All microscope imaging was performed with a Zeiss LSM 780 or Olympus SD-OSR. To assess the F-actin organization after certain treatments, cells were seeded on a glass-bottom culture dish (D11130H, Matsunami). After culture with the peptides, cells were fixed with 4% paraformaldehyde phosphate buffer solution (PFA, 30525-89-4, Wako) for 10 min at room temperature, washed, and permeabilized with 0.1% Triton X-100 (Sigma) in PBS for 15 min. Cells were washed with DPBS twice and incubated with ActinRed (Rhodamine-conjugated phalloidin, R37112, Invitrogen) or ActinGreen (Alexa-Fluor-488-conjugated phalloidin, R37110, Invitrogen) for 15 min at room temperature. Cells were washed with DPBS before being imaged. Morphological characteristics, including cell spreading area and perimeter area ratio, were quantified by Image J.

Assay [3] deals with paxillin Y118 phosphorylation in HuH-7 cells. Kind of assay: Western blotting Paxillin / pY118 Paxillin. The protocol: Protein lysates were prepared in ice-cold RIPA lysis, and extraction buffer (Thermo Scientific) supplemented with 1% Halt Protease Inhibitor (Thermo Scientific) and 1% Halt Phosphatase inhibitor (Thermo Scientific). Cells were scraped off from the culture surface using a cold plastic cell scraper, and the cell suspension was then gently transferred into a pre-cooled microcentrifuge tube and maintained on ice for 30 min with constant agitation before centrifuged at 21000 × g for 20 min. The supernatant was then transferred to a new tube, and the protein concentration of the supernatant was quantified according to the Pierce™ BCA Protein Assay Kit (Thermo Scientific). The rest of the supernatant was mixed with 4x laemmli sample buffer (Bio-Rad) in a 1:3 ratio and boiled at 100 °C for 10 min. Lysates can be aliquoted and stored at −80 °C freezer. When running the gel, 30 μg of protein was loaded into each well of the SDS-PAGE gels, along with a molecular weight marker (Bio-Rad). The gel was run for 2 hr at constantly 100 V to separate the proteins based on the molecular weight. The proteins were then transferred from the SDS-gel to a PVDF membrane (Bio-Rad) using a Transfer-blot turbo system (Bio-Rad). Once the membranes were blocked with Blocking One P solution (Nacalai) for 20 min at room temperature with gentle shaking, they were probed with antibodies against GAPDH (6C5, ab8245, Abcam, 1:1000), integrin beta 1 (12G10, ab30394, Abcam, 1:100), integrin alpha 3 (ASC-1, MA5-28565, Invitrogen, 1:100), integrin alpha 6 (EPR18124, ab191551, Abcam, 1:200), Phospho-Myosin Light Chain 2 (Thr18/Ser19)(pMLC, #3647, Cell Signaling Technology, 1:200) diluted in Tris-Buffered Saline containing 0.1% Tween-20 and 5% Blocking one P solution and the membrane was incubated in the dark for overnight at 4 °C with gentle shaking. The unbounded antibodies were washed out with tris-buffered saline (TBS) containing 0.1% Tween-20 (TBS- T) for 10 min for at least 6 times. […] Protein bands were quantified by measuring peak areas using ImageJ. […]
On the technique in general: A western blot detects proteins with antibodies after separation by electrophoresis.

Assay [4] deals with integrin α3β1 expressing cells (HuH-7, HeLa, HepG2, A549, MKN1, and U-87 MG). Kind of assay: Wound healing assay, integrin α3β1 expressing cells. To be noted: 10-200 µM. The protocol: Healthy cells were seeded in 96-well Image Lock plates (Essen Bioscience, UK). Each well contained 2 ×10^4 to 5 × 10^4 cells in 100 μL of complete cell culture medium. Cell monolayer with approximately 90% confluence formed after 12 hr and cells were next starved in serum-free culture medium for 12 hrs. Homogenous scratch wounds with a width of about 700 μm were made by an Essen BioScienceWound Maker. The detached cells were washed with Dulbecco’s Buffered Saline (DPBS, Gibco) 3 times. Cells were incubated with 100 μL of culture medium containing 0.5 % FBS and desired concentration of each peptide. Wound closure was monitored by an IncucyteS3 (Essen Bioscience) with a 10x objective. Images for each well were acquired every 2 hr to 8 hr for 2 days or until the wounds were closed completely. The wound healing rate was quantified by Incucyte Scratch Wound Analysis Module (Essen Bioscience). The experiments were repeated at least 3 times, and the results were presented as mean ± standard deviation of at least 3 independent experiments.

Setting [5] is: vin258-transfected HuH-7, 12 hr, n = 51 cells, mean.
[6] abbreviates: relative to Ctrl = 1, 12 hr, representative blot.

Regarding “FFFIKLLI [assembling ligand: FFF coupled to the N-terminus of IKLLI; self-assembles into nanofilaments]”, in the assay on HuH-7 cells [1] (HuH-7 expressing vin258, 12 h), the “cell motility, vin258-expressing cells” value was “suppression effect on cell motility was remained”. Further, the migration speed with HuH-7 cells [1] (Tiam1/Rac1-activated HuH-7, n = 230, 232 cells, p = 0.4508 vs Ctrl) came to 0.3729 µm/min; with HuH-7 cells [1] (vin258-transfected HuH-7, mean, n = 169, 176 cells), 0.140 µm/min. For the same sequence, the “Perimeter / Area” value in the assay on HuH-7 cells [2] (Tiam1/Rac1-preactivated HuH-7, 12 hr, n = 64 cells, p = 0.5635 vs Ctrl) was determined as 0.1130 µm-1; in the assay with HuH-7 cells [2] (setting [5]) it was 0.2881 µm-1. Moreover, the Spreading area in the assay with HuH-7 cells [2] (Tiam1/Rac1-preactivated HuH-7, 12 hr, n = 64 cells, p = 0.8317 vs Ctrl) worked out at 4496 µm2; with HuH-7 cells [2] (glass, FN or LM-5 coated dish (order not readable), 12 hr, value 2) it was 1802 µm2; with HuH-7 cells [2] (glass, FN or LM-5 coated dish (order not readable), 12 hr, value 3), 1763 µm2; with HuH-7 cells [2] (setting [5]) it was 2047 µm2. Further, the “paxillin Y118 phosphorylation” value in assay [3] (HuH-7, 12 hr, n = 9) is reported as “reduction”. The sequence further returned a Paxillin band in assay [3] (setting [6]) of 1.01. For the same sequence, the pY118Paxillin band in assay [3] (setting [6]) turned out to be 0.34. In addition, in assay [4], the “effect on cell migration” value is listed as “suppression effect”.

The values are drawn from publication PMC9411606, “Control cell migration by engineering integrin ligand assembly” (Nature Communications, 2022).
